AUC data for 1 compound are collected here from ChEMBL document CHEMBL4184274 (Bioorg Med Chem Lett, 2018).

The nature of the series: in vivo. The following applies: rat, 5 mg/kg.

Broadly, the AUC is concentration integrated over time. The low end stands for less exposure, the high end for more exposure. On to `CCN1CCN(Cc2ccc(Nc3ncc(F)c(-c4cc(F)c5nc(C)n(C(C)C)c5c4)n3)nc2)CC1` [ABEMACICLIB], for which the AUC came out at 3.27 µg·h/mL.
